From ChEMBL document CHEMBL4229519, “Design, synthesis, and activity evaluation of novel erythropoietin mimetic peptides” (Bioorg Med Chem Lett, 2018) come the findings set out here.

Each structure is given as a SMILES string. Bridge positions count the residues as written; N and C are the ends. Square brackets hold non-standard residues; d marks the D form. Peptide text beside a SMILES is read from it. 1Nal = N[C@@H](Cc1cccc2ccccc12)C(=O)O; Cit = NC(=O)NCCC[C@H](N)C(=O)O; NMeA = CN[C@@H](C)C(=O)O; Sar = CNCC(=O)O

One data set concerns the target T1, Erythropoietin receptor (Homo sapiens, UniProt P19235).
T1 sequence (P19235 whole entry): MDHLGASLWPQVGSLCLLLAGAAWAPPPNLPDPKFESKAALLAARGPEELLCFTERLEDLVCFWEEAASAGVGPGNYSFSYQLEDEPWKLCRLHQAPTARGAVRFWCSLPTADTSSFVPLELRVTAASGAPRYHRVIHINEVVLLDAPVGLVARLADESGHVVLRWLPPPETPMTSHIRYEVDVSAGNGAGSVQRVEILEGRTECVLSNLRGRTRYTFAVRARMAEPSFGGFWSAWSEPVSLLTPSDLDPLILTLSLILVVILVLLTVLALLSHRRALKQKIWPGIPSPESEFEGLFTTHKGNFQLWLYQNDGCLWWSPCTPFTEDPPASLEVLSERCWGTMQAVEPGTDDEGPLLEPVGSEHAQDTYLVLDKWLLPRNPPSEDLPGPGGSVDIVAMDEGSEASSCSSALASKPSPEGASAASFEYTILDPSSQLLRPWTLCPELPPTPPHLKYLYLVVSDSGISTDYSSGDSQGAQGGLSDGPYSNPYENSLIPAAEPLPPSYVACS
Briefly: Agonist activity at EPO receptor in human TF1 cells assessed as induction of cell proliferation after 48 hrs by MTT assay. It counts as cell-based. Background: Tetrazolium assays rely on reduction of a dye to a coloured formazan, in cell work by metabolically active cells.

For data set [1], the system named is Mus musculus. In words: Toxicity in mouse assessed as increase in body weight at 2.1 umol/kg, sc administered once daily for 7 consecutive days measured on day 3 during compound dosing relative to control. It is filed as organism-based. The settings on record: in vivo.
Data set [2] deals with Mus musculus. In words: Toxicity in mouse assessed as increase in body weight at 2.1 umol/kg, sc administered once daily for 7 consecutive days measured on day 5 during compound dosing relative to control. The note with it: in vivo. It counts as organism-based.
The subject of data set [3] is Mus musculus. Briefly: Toxicity in mouse assessed as increase in body weight at 2.1 umol/kg, sc administered once daily for 7 consecutive days measured on day 7 during compound dosing relative to control. It counts as organism-based. The settings on record: in vivo.
Data set [4] has as its system Mus musculus. In words: Toxicity in mouse assessed as body weight at 2.1 umol/kg, sc administered once daily for 7 consecutive days measured on day 1 during compound dosing (reference value: 24.5 +/- 1.1 g). The settings on record: in vivo. It counts as organism-based.
The test system of data set [5] is Mus musculus. In words: Antianemic activity in mouse assessed as RBC level at 2.1 umol/kg, sc administered once daily for 7 consecutive days (reference value: 8.74 +/- 0.58 10^12/L). It is filed as functional.
Data set [6] deals with Mus musculus. Briefly: Antianemic activity in mouse assessed as hematocrit by measuring ratio of RBC volume to total blood volume at 2.1 umol/kg, sc administered once daily for 7 consecutive days (reference value: 0.476 +/- 0.024). It is filed as functional.
Data set [7] deals with Mus musculus. In words: Antianemic activity in mouse assessed as hemoglobin level at 2.1 umol/kg, sc administered once daily for 7 consecutive days (reference value: 135.1 +/- 9.5 g/L). It is filed as functional.
Data set [8] relates to Mus musculus. Briefly: Antianemic activity in mouse assessed as reticulocyte level at 2.1 umol/kg, sc administered once daily for 7 consecutive days (reference value: 0.46 +/- 0.11 10^12/L). It is filed as functional.
In data set [9] the test system is Mus musculus. In words: Effect on WBC level in mouse at 2.1 umol/kg, sc administered once daily for 7 consecutive days (reference value: 5.84 +/- 1.43 10^9/L). It is filed as ADME, organism-based. The settings on record: in vivo.

As to `CC[C@H](C)[C@@H]1NC(=O)[C@@H]2CCCN2C(=O)CNC(=O)[C@H](CCSC)NC(=O)[C@H](Cc2cnc[nH]2)NC(=O)[C@@H](NC(=O)[C@@H](C)NC(=O)[C@H](Cc2ccc(O)cc2)NC(=O)[C@H](CC(C)C)NC(=O)CNC(=O)CNC(C)=O)CSSC[C@@H](C(=O)N[C@@H](CCC(N)=O)C(=O)N2CCC[C@H]2C(=O)N[C@@H](CC(C)C)C(=O)N[C@@H](CCCNC(=N)N)C(=O)N(C)CC(=O)N[C@@H](CCCCN)C(N)=O)NC(=O)[C@H](C(C)C)NC(=O)[C@H](Cc2cccc3ccccc23)NC(=O)[C@H]([C@@H](C)O)NC1=O`, the EC50 entry at Erythropoietin receptor is on record as “Not Active”.

`CC[C@H](C)[C@@H]1NC(=O)[C@@H]2CCCN2C(=O)CNC(=O)[C@@H](CCSC)NC(=O)[C@H](Cc2cnc[nH]2)NC(=O)[C@@H](NC(=O)[C@H](C)NC(=O)[C@H](Cc2ccc(O)cc2)NC(=O)[C@H](CC(C)C)NC(=O)CNC(=O)CNC(C)=O)CSSC[C@@H](C(=O)N[C@@H](CCC(N)=O)C(=O)N2CCC[C@H]2C(=O)N[C@@H](CC(C)C)C(=O)N[C@@H](CCCNC(=N)N)C(=O)N(C)CC(=O)N[C@@H](CCCCN)C(N)=O)NC(=O)[C@H](C(C)C)NC(=O)[C@H](Cc2cccc3ccccc23)NC(=O)[C@H]([C@@H](C)O)NC1=O`: the EC50 result at Erythropoietin receptor is on record as “Not Active”.

As for `CC[C@H](C)[C@@H]1NC(=O)[C@@H]2CCCN2C(=O)CNC(=O)[C@H](CCSC)NC(=O)[C@H](Cc2cnc[nH]2)NC(=O)[C@@H](NC(=O)[C@H](C)NC(=O)[C@H](Cc2ccc(O)cc2)NC(=O)[C@H](CC(C)C)NC(=O)CNC(=O)CNC(C)=O)CSSC[C@@H](C(=O)N[C@@H](CCC(N)=O)C(=O)N2CCC[C@H]2C(=O)N[C@@H](CC(C)C)C(=O)N[C@@H](CCCNC(=N)N)C(=O)N(C)CC(=O)N[C@@H](CCCCN)C(N)=O)NC(=O)[C@H](C(C)C)NC(=O)[C@H](Cc2cccc3ccccc23)NC(=O)[C@H]([C@@H](C)O)NC1=O`, the Activity with Mus musculus [1] amounted to 12.5%; with Mus musculus [2], 16.3%; in the data set with Mus musculus [3] it was 22.6%; in the data set on Mus musculus [4], 24.9 g; with Mus musculus [5], 9.17 ×10¹² /L; in the data set with Mus musculus [7], 149.9 g/L. For the same molecule, the Activity with Mus musculus [8] was determined as 0.7 ×10¹² /L; with Mus musculus [9] it was 5.11 ×10⁹ /L. Besides, the Ratio in the data set on Mus musculus [6] is 0.493.

On to `CC[C@H](C)[C@@H]1NC(=O)[C@@H]2CCCN2C(=O)CNC(=O)[C@H](CCSC)NC(=O)[C@H](Cc2cnc[nH]2)NC(=O)[C@@H](NC(=O)[C@H](C)NC(=O)[C@@H](Cc2ccc(O)cc2)NC(=O)[C@H](CC(C)C)NC(=O)CNC(=O)CNC(C)=O)CSSC[C@@H](C(=O)N[C@@H](CCC(N)=O)C(=O)N2CCC[C@H]2C(=O)N[C@@H](CC(C)C)C(=O)N[C@@H](CCCNC(=N)N)C(=O)N(C)CC(=O)N[C@@H](CCCCN)C(N)=O)NC(=O)[C@H](C(C)C)NC(=O)[C@H](Cc2cccc3ccccc23)NC(=O)[C@H]([C@@H](C)O)NC1=O`, for which the EC50 entry at Erythropoietin receptor is reported as “Not Active”.

In the case of `CC[C@H](C)[C@@H]1NC(=O)[C@@H]2CCCN2C(=O)CNC(=O)[C@H](CCSC)NC(=O)[C@H](Cc2cnc[nH]2)NC(=O)[C@@H](NC(=O)[C@H](C)NC(=O)[C@H](Cc2ccc(O)cc2)NC(=O)[C@H](CC(C)C)NC(=O)CNC(=O)CNC(C)=O)CSSC[C@@H](C(=O)N[C@@H](CCC(N)=O)C(=O)N2CCC[C@H]2C(=O)N[C@@H](CC(C)C)C(=O)N[C@@H](CCCNC(N)=O)C(=O)N(C)CC(=O)N[C@@H](CCCCN)C(N)=O)NC(=O)[C@H](C(C)C)NC(=O)[C@H](Cc2cccc3ccccc23)NC(=O)[C@H]([C@@H](C)O)NC1=O` (Ac-GGLYACHMGPIT[1Nal]VCQPL[Cit][Sar]K-NH2; disulfide 6-15), the Activity in the data set with Mus musculus [1] is on record as 11.7%; in the data set with Mus musculus [2], 16.9%; in the data set with Mus musculus [3], 21.7%; in the data set on Mus musculus [4] it was 25.5 g; with Mus musculus [5], 9.67 ×10¹² /L; in the data set with Mus musculus [7] it was 158.1 g/L. The Activity in the data set on Mus musculus [8] is reported as 0.89 ×10¹² /L; with Mus musculus [9] it was 6.48 ×10⁹ /L. Also, in the data set with Mus musculus [6], the Ratio is recorded as 0.535.

In the case of `CC[C@H](C)[C@@H]1NC(=O)[C@@H]2CCCN2C(=O)CNC(=O)[C@H](CCSC)NC(=O)[C@H](Cc2cnc[nH]2)NC(=O)[C@@H](NC(=O)[C@H](C)NC(=O)[C@H](Cc2ccc(O)cc2)NC(=O)[C@H](CC(C)C)NC(=O)CNC(=O)CNC(C)=O)CSSC[C@@H](C(=O)N[C@@H](CCC(N)=O)C(=O)N(C)[C@@H](C)C(=O)N[C@@H](CC(C)C)C(=O)N[C@@H](CCCNC(=N)N)C(=O)N(C)CC(=O)N[C@@H](CCCCN)C(N)=O)NC(=O)[C@H](C(C)C)NC(=O)[C@H](Cc2cccc3ccccc23)NC(=O)[C@H]([C@@H](C)O)NC1=O` (Ac-GGLYACHMGPIT[1Nal]VCQ[NMeA]LR[Sar]K-NH2; disulfide 6-15), the Activity with Mus musculus [1] worked out at 11%; with Mus musculus [2], 15.3%; in the data set on Mus musculus [3], 19.1%; in the data set with Mus musculus [4], 24.7 g; in the data set on Mus musculus [5], 9.14 ×10¹² /L; in the data set with Mus musculus [7], 146.4 g/L. For the same molecule, the Activity with Mus musculus [8] amounted to 0.65 ×10¹² /L; with Mus musculus [9] it was 5.45 ×10⁹ /L. The Ratio with Mus musculus [6] came out at 0.493.

With `CC[C@H](C)[C@@H]1NC(=O)[C@H](C)N(C)C(=O)CNC(=O)[C@H](CCSC)NC(=O)[C@H](Cc2cnc[nH]2)NC(=O)[C@@H](NC(=O)[C@H](C)NC(=O)[C@H](Cc2ccc(O)cc2)NC(=O)[C@H](CC(C)C)NC(=O)CNC(=O)CNC(C)=O)CSSC[C@@H](C(=O)N[C@@H](CCC(N)=O)C(=O)N2CCC[C@H]2C(=O)N[C@@H](CC(C)C)C(=O)N[C@@H](CCCNC(=N)N)C(=O)N(C)CC(=O)N[C@@H](CCCCN)C(N)=O)NC(=O)[C@H](C(C)C)NC(=O)[C@H](Cc2cccc3ccccc23)NC(=O)[C@H]([C@@H](C)O)NC1=O` (Ac-GGLYACHMG[NMeA]IT[1Nal]VCQPLR[Sar]K-NH2; disulfide 6-15), the Activity with Mus musculus [1] is 12.7%; in the data set with Mus musculus [2], 19.5%; in the data set on Mus musculus [3], 27.2%; in the data set with Mus musculus [4] it was 24.7 g; in the data set on Mus musculus [5], 9.15 ×10¹² /L; in the data set with Mus musculus [7], 144.4 g/L. The Activity in the data set with Mus musculus [8] turned out to be 0.66 ×10¹² /L; in the data set with Mus musculus [9], 5.64 ×10⁹ /L. Further, the Ratio with Mus musculus [6] turned out to be 0.498.
